Columns and labels:
[1] = system: E. coli ML35p outer membrane; assay: NPN assay, outer membrane perturbation; type: cell-based, Escherichia coli; conditions: 25 μM peptide, 25 μM PMB = 100%
Protocol: (§1) Interactions with Bacterial Membranes. Interaction of the peptides with bacterial membranes in different phosphate buffers were evaluated using E. coli ML35p, constructed in our laboratory. At first, competent cells of E. coli ML35 were produced by conventional competent cell preparation method, then transformed with pBR322 plasmid. Transformed colonies were selected after growing on Luria-agar containing 50 μg/mL ampicillin. A single transformed colony was grown in presence of ampicillin first in Luria broth and then in MHBII and stored as 20% glycerol stock at −80° C. This frozen stock, on the day of the experiment, was thawed and grown in MHBII containing ampicillin up to OD600 nm=0.8-0.9, washed with PBS and then suspended in the respective buffer up to the required OD600 nm for use.
NPN Assay. The outer membrane perturbation of bacteria was evaluated by incubating E. coli ML35p with peptides in presence of NPN. 100 mM NPN in acetone was supplemented proportionately to a bacterial suspension of OD600 nm˜0.5 to achieve a final concentration of 20 μM of NPN and the mixture was equilibrated for 30 mins. Then, 90 μL of the bacterial suspension containing 20 μM NPN was added with 10 μL of 250 μM peptide (10×) solution in water and scanned for fluorescence intensity (excitation=350 nm, emission=420 nm). The % Perturbation was calculated by considering PMB to be causing 100% Perturbation and water (without peptide) as 0% Perturbation. Each peptide was tested in triplicate in each of the three phosphate buffers used.
When peptides partition from the bulk aqueous environment to the cellular membranes, they may cause small defects in the membrane organization, a signature of adsorption of the peptides into the membranes. Such small defects are called membrane perturbations and can be evaluated by utilizing molecular probes. One such molecular probe is NPN, which is a hydrophobic molecule and is usually repelled to enter the hydrophobic interiors of the membrane by the polar headgroups of membrane-lipids. However, when small defects and gaps are caused during the adsorption of the peptides into the membranes, NPN can enter through those defects and in the hydrophobic environment of the membrane interior the molecule fluoresces, which can be measured for quantification of the extent of membrane-perturbation and peptide adsorption in the cellular membrane.

[2] = system: E. coli ML35p outer membrane; assay: Outer membrane disruption (β-lactamase leakage, nitrocefin); type: cell-based, Escherichia coli; conditions: for time to reach maximum signal for nitrocefin hydrolysis / outer membrane disruption (β-lactamase activity) relative to HCMAB: DPBS
Protocol: as §1
Membrane Disruptions. The outer and the inner membrane disruptions by the peptides were evaluated by incubating bacterial suspension with peptides and then measuring the activity of enzymes leaked out of the cells. 100 μL of 10× concentration of peptide in water was incubated with 900 μL bacterial suspension (OD600 nm˜0.1) in respective buffer for 3 hours at room temperature with gentle rotation. Then the cells and debris were separated by centrifugation (10000 r.p.m. for 30 mins) and the supernatant was collected and tested for activity of enzymes that had leaked out of the bacterial cells. HCMAB was used as a positive control to cause 100% membrane disruption and water as a negative causing 0% disruption.
The outer membrane disruption was tested by using the activity of beta-lactamase present in the periplasmic space of E. coli ML35p. Peptides when disrupt the outer membrane enough to cause beta-lactamase to come out, the degree of disruption can be measured by the virtue of the kinetics of the enzyme and using a chromogenic cephalosporin substrate called nitrocefin. β-lactamase mediated hydrolyzed product of nitrocefin has an absorbance αmax=486 nm. Supernatant collected from the incubation of peptide with bacteria was added with nitrocefin solution in DPBS and incubated at 35° C. and continuous absorbance readings. The slope of the linear section of the absorbance curve (absorbance vs time), was used as a measure of membrane disruption and the % Disruption was calculated as: Equation 7: […]
Some of the ATRA1-variants were further tested for their ability to disrupt outer and inner membranes to form pores or disruptions sufficiently large so as to allow enzymes to leak out of their cellular compartments (cytoplasm or periplasmic space). For this purpose, two reporter molecules were used with one being the substrate of a cytoplasmic enzyme and the other was a substrate for an enzyme residing in the periplasmic space. One of the reporters, nitrocefin was the substrate for β-lactamase, which is present in the bacterial periplasm, whereas the other molecule, ONPG, was the substrate for β-galactosidase, which resides in the cytoplasm of E. coli ML35p strain. […] Similarly, β-galactosidase activity in the supernatants is evidence of inner membrane disruption and possible pore formation. When the aforesaid supernatants were tested for nitrocefin and ONPG hydrolysis, the corresponding absorbance increased with time (data not shown) indicating β-lactamase and β-galactosidase activity, respectively, and thus disruption of both the inner and outer membranes. The slopes of the increase in absorbance as a function of time provides the rate of enzyme activity. The enzyme activities in supernatants collected after incubation of bacteria with the quaternary ammonium surfactant, hexadecyltrimethylammonium bromide (HCMAB) was used as an internal reference for 100% membrane disruption. Enzyme activity for supernatants collected for cells incubated in the absence of peptide provided a reference for 0% membrane disruption. Bee venom peptide melittin was used as a positive control. […]

Sequence	membrane perturbation with respect to PMB ([1]; DPBS)	membrane perturbation with respect to PMB ([1]; PBS)	time to reach maximum signal for nitrocefin hydrolysis [2]	outer membrane disruption (β-lactamase activity) relative to HCMAB ([2]; HCMAB = 100%)	also measured
KRFKKFFKKLKGGVIGVTFPF (SEQ ID NO: 38) [ATRA1-HYD, ATRA1 with hydrophobic tail of NA-CATH joined at the C-terminus by a short -GG- segment]	~75%	–	–	–	–
KRAKKFFKRLK (SEQ ID NO: 6) [ATRA1-AR]	–	decreased slightly	–	–	–
RRFRRFFRRLR (SEQ ID NO: 10) [ATRA1-R6]	higher OM perturbation than ATRA1	decreased slightly	approximately 30 mins	–	–
RRFKRFFKRLK (SEQ ID NO: 9) [ATRA1-R3]	higher OM perturbation than ATRA1	–	–	in between those observed for ATRA1 and ATRA1-F	–
RRWKRFFKRWKGGVIGVTFPF (SEQ ID NO: 50) [ATRA1-R3W2-HYD, ATRA1-R3W2 with hydrophobic tail of NA-CATH joined by -GG-]	~100%	comparable to PMB	–	160%	membrane perturbation with respect to PMB ([1]; 10 mM phosphate buffer): 75%
KRFKKFFKKLKNSVKKRAKKFFKKPK (SEQ ID NO: 53) [NA-CATH26, first 26 residues of NA-CATH]	–	perturbed outer membrane greater than PMB	–	significantly lower degrees of β-lactamase leakage	membrane perturbation with respect to PMB ([1]; 10 mM phosphate buffer): higher degree of membrane perturbations than PMB
RRWKRFFKRWK (SEQ ID NO: 15) [ATRA1-R3W2]	higher OM perturbation than ATRA1	perturbed comparable to PMB	approximately 30 mins	Higher outer membrane disruption	membrane perturbation with respect to PMB ([1]; DPBS, listed as ATRA-R3W2): ~65%; outer membrane disruption (β-lactamase activity) relative to HCMAB ([2]; HCMAB = 100%, listed as ATRA-R3W2): approximately 4%
KRFKKFFKKLK (SEQ ID NO: 2) [ATRA1, first 11 residues of NA-CATH]	less than 50%	perturbed comparable to PMB	–	–	outer membrane disruption relative to HCMAB ([2]; 10 mM phosphate buffer, HCMAB = 100%): higher degree of disruption than ATRA1-R3W2
KRAKKFFKKLK (SEQ ID NO: 4) [ATRA1-A]	less effective at perturbing the outer membrane than ATRA-1	–	–	–	–
KRWKKWWKKWK (SEQ ID NO: 14) [ATRA1-W4]	higher OM perturbation than ATRA1	–	approximately 30 mins	–	–
